According to US20240409536A1, “COMPOUNDS AND METHODS FOR MODULATING SPLICING” (REMIX THERAPEUTICS INC., priority 2021, published 2024):
Where a name gives a salt, the structure may show the parent alone.

How the values were obtained:
HTT mRNA = assay: Splicing RT-qPCR assay, HTT canonical (CJ) and alternative (AJ) junction mRNA; format: cell-based; conditions: Homo sapiens, A673 or K562 cells, 24 hours; for IC50: decrease in canonical junction mRNA; for AC50: increase in alternative junction mRNA
Procedure, shortened: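 A673 (DMEM/10% FBS, plated 24 h before dosing) or K562 (IMDM/10% FBS) cells treated 24 h at 37 °C with 11-point 3-fold dilutions, top final 10 uM, DMSO ≤0.25%. Lysates analysed by one-step RT-qPCR for CJ and AJ isoforms, normalized to GAPDH/GUSB (K562) or PPIA (A673).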

K562 cells = assay: Cell Titer Glo 2.0 cell viability assay in K562 cells; conditions: 72 hours
SMN2 mRNA = assay: Gene panel canonical junction qPCR assay, SMN2 CJ mRNA decrease; format: cell-based, human; conditions: Homo sapiens, canonical junction qPCR, read-out: SMN2 IC50 (decrease in CJ mRNA levels)
Procedure, shortened: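 A673 or K562 cells treated with compound; canonical exon-exon junction mRNA quantified by cDNA synthesis and RT-qPCR with junction-spanning primer/probe, normalized to GAPDH, GUSB or PPIA and DMSO (2^(−ΔΔCt)). Percent response from set ΔCt assay windows fitted to 4-parameter logistic; IC50 for CJ decrease.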

IC50 (HTT mRNA) | IC50 (SMN2 mRNA) | SMILES | AC50 (HTT mRNA) | Viability (K562 cells)
100 to 1000 nM | < 100 nM | Cc1cc2c(N3CCNCC3)ccc(C(=O)Nc3cc(F)c4nc(C)cn4c3)c2nn1 [Compound 159] | 100 to 1000 nM | A (A represents <100 nM)
100 to 1000 nM | < 100 nM | CCNC1CCN(c2ccc(C(=O)Nc3cc(F)c4nc(C)cn4c3)c3nccnc23)CC1 [Compound 191, 8-[4-(ethylamino)piperidin-1-yl]-N-{8-fluoro-2-methylimidazo[1,2-a]pyridin-6-yl}quinoxaline-5-carboxamide] | 100 to 1000 nM | B (B represents 100-1000 nM)
1000 to 10000 nM | < 100 nM | COc1cc2c(N3CCNCC3)ccc(C(=O)Nc3cc(F)c4nc(C)cn4c3)c2nn1 [Compound 183, N-{8-fluoro-2-methylimidazo[1,2-a]pyridin-6-yl}-3-methoxy-5-(piperazin-1-yl)cinnoline-8-carboxamide] | 1000 to 10000 nM | B (B represents 100-1000 nM)
1000 to 10000 nM | < 100 nM | Cc1cn2cc(NC(=O)c3ccc(C4CCNC5(CC5)C4)c4nccnc34)cc(F)c2n1 (stereo not shown) [Compound 375] | 1000 to 10000 nM | B (B represents 100-1000 nM)
100 to 1000 nM | < 100 nM | Cc1cn2cc(NC(=O)c3ccc(N4CCN5CCC[C@@H]5C4)c4ccnnc34)cc(F)c2n1 [Compound 153] | 100 to 1000 nM | B (B represents 100-1000 nM)
> 10000 nM | < 100 nM | COc1cnc2c(C(=O)Nc3cc(F)c4nc(C)cn4c3)ccc(N3CCNCC3)c2n1 [Compound 225, N-{8-fluoro-2-methylimidazo[1,2-a]pyridin-6-yl}-2-methoxy-8-(piperazin-1-yl)quinoxaline-5-carboxamide] | > 10000 nM | C (C represents 1000-9999 nM)
1000 to 10000 nM | < 100 nM | CC[C@@H]1CN(c2ccc(C(=O)Nc3cc(F)c4nc(C)cn4c3)c3nnccc23)CCN1 [Compound 151] | 1000 to 10000 nM | B (B represents 100-1000 nM)
> 10000 nM | < 100 nM | COc1cc(NC(=O)c2ccc(N3CCNCC3)c3ccnnc23)cn2cc(C)nc12 [Compound 176, N-{8-methoxy-2-methylimidazo[1,2-a]pyridin-6-yl}-5-(piperazin-1-yl)cinnoline-8-carboxamide trifluoroacetate] | > 10000 nM | B (B represents 100-1000 nM)
1000 to 10000 nM | < 100 nM | CCNC1CCN(c2ccc(C(=O)Nc3cc(F)c4nc(C)sc4c3)c3nnccc23)CC1 [Compound 221, 5-[4-(ethylamino)piperidin-1-yl]-N-(4-fluoro-2-methyl-1,3-benzothiazol-6-yl)cinnoline-8-carboxamide] | 1000 to 10000 nM | B (B represents 100-1000 nM)
100 to 1000 nM | 100 to 1000 nM | Cc1cn2nc(NC(=O)c3ccc(N4CCNCC4)c4ccnnc34)cc(C)c2n1 [Compound 100] | 100 to 1000 nM | B (B represents 100-1000 nM)
1000 to 10000 nM | < 100 nM | Cc1cn2cc(NC(=O)c3ccc(N4C[C@@H](C)N[C@@H](C)C4)c4ccnnc34)cc(F)c2n1 [Compound 161, 5-(3,5-dimethylpiperazin-1-yl)-N-{8-fluoro-2-methylimidazo[1,2-a]pyridin-6-yl}cinnoline-8-carboxamide 2,2,2-trifluoroacetate] | 1000 to 10000 nM | B (B represents 100-1000 nM)
1000 to 10000 nM | < 100 nM | Cc1cn2cc(NC(=O)c3ccc(N4CCNCC4)c4ccnnc34)cc(C#N)c2n1 [Compound 167, N-{8-cyano-2-methylimidazo[1,2-a]pyridin-6-yl}-5-(piperazin-1-yl)cinnoline-8-carboxamide trifluoroacetic acid salt] | > 10000 nM | B (B represents 100-1000 nM)
1000 to 10000 nM | < 100 nM | Cc1cn2cc(NC(=O)c3ccc(N4C[C@H](C)NC5(CC5)C4)c4nccnc34)cc(F)c2n1 [Compound 377] | 1000 to 10000 nM | B (B represents 100-1000 nM)
1000 to 10000 nM | < 100 nM | Cc1cn2cc(NC(=O)c3ccc(N4CC(C)(C)NC(C)(C)C4)c4nccnc34)cc(F)c2n1 [Compound 219, N-{8-fluoro-2-methylimidazo[1,2-a]pyridin-6-yl}-8-(3,3,5,5-tetramethylpiperazin-1-yl)quinoxaline-5-carboxamide] | 1000 to 10000 nM | A (A represents <100 nM)
1000 to 10000 nM | < 100 nM | Cc1cn2cc(NC(=O)c3ccc(N4CCC(NC(C)(C)C)CC4)c4ccnnc34)cc(F)c2n1 [Compound 138] | 1000 to 10000 nM | C (C represents 1000-9999 nM)
> 10000 nM | < 100 nM | CN[C@@H]1CCN(c2ccc(C(=O)Nc3cc(F)c4nc(C)cn4c3)c3nc(OC)cnc23)C1 [Compound 204, (R)—N-{8-fluoro-2-methylimidazo[1,2-a]pyridin-6-yl}-3-methoxy-8-[3-(methylamino)pyrrolidin-1-yl]quinoxaline-5-carboxamide; trifluoroacetic acid] | > 10000 nM | A (A represents <100 nM)
> 10000 nM | < 100 nM | CNC1CCN(c2ccc(C(=O)Nc3cc(F)c4nc(C)cn4c3)c3nc(OC)cnc23)C1 (stereo not shown) [Compound 202, N-{8-fluoro-2-methylimidazo[1,2-a]pyridin-6-yl}-3-methoxy-8-[3-(methylamino)pyrrolidin-1-yl]quinoxaline-5-carboxamide; bis(trifluoroacetic acid)] | > 10000 nM | A (A represents <100 nM)
100 to 1000 nM | < 100 nM | Cc1ccc2c(N3C[C@@H](C)N[C@@H](C)C3)ccc(C(=O)Nc3cc(F)c4nc(C)cn4c3)c2n1 [Compound 214, 5-[(3R,5S)-3,5-dimethylpiperazin-1-yl]-N-{8-fluoro-2-methylimidazo[1,2-a]pyridin-6-yl}-2-methylquinoline-8-carboxamide] | 1000 to 10000 nM | B (B represents 100-1000 nM)
1000 to 10000 nM | < 100 nM | Cc1cn2cc(NC(=O)c3ccc(N4CCC(N(C)C)C4)c4ccnnc34)cc(F)c2n1 (stereo not shown) [Compound 134] | 1000 to 10000 nM | B (B represents 100-1000 nM)
100 to 1000 nM | < 100 nM | COc1cnc2c(C(=O)Nc3cc(F)c4nc(C)cn4c3)ccc(N3C[C@@H](C)N[C@@H](C)C3)c2n1 [Compound 223] | 100 to 1000 nM | B (B represents 100-1000 nM)
> 10000 nM | < 100 nM | Cc1c(O)c(NC(=O)c2ccc(N3CCNCC3)c3ccnnc23)cc2cn(C)nc12 [Compound 181, N-(6-hydroxy-2,7-dimethylindazol-5-yl)-5-(piperazin-1-yl)cinnoline-8-carboxamide] | > 10000 nM | C (C represents 1000-9999 nM)
1000 to 10000 nM | < 100 nM | Cc1cn2cc(NC(=O)c3ccc(C4CCN(C)CC4)c4ccnnc34)cc(F)c2n1 [Compound 140] | 1000 to 10000 nM | B (B represents 100-1000 nM)
1000 to 10000 nM | < 100 nM | Cc1cnc2c(N3CCNCC3)ccc(C(=O)Nc3cc(F)c4nc(C)cn4c3)c2n1 [Compound 197, N-{8-fluoro-2-methylimidazo[1,2-a]pyridin-6-yl}-3-methyl-8-(piperazin-1-yl)quinoxaline-5-carboxamide; trifluoroacetic acid] | 1000 to 10000 nM | C (C represents 1000-9999 nM)
100 to 1000 nM | < 100 nM | COc1cnc2c(N3CCNCC3)ccc(C(=O)Nc3cc(F)c4nc(C)cn4c3)c2n1 [Compound 207, N-{8-fluoro-2-methylimidazo[1,2-a]pyridin-6-yl}-3-methoxy-8-(piperazin-1-yl)quinoxaline-5-carboxamide; bis(trifluoroacetic acid)] | 1000 to 10000 nM | B (B represents 100-1000 nM)
> 10000 nM | < 100 nM | COCCOc1cc2c(N3CCNCC3)ccc(C(=O)Nc3cc(F)c4nc(C)cn4c3)c2nn1 [Compound 199, N-{8-fluoro-2-methylimidazo[1,2-a]pyridin-6-yl}-3-(2-methoxyethoxy)-5-(piperazin-1-yl)cinnoline-8-carboxamide] | > 10000 nM | B (B represents 100-1000 nM)
1000 to 10000 nM | < 100 nM | Cc1cn2cc(NC(=O)c3ccc(N4C[C@@H](C)N[C@@H](C)C4)c4nccnc34)cc(F)c2n1 [Compound 186, 8-(3,5-dimethylpiperazin-1-yl)-N-{8-fluoro-2-methylimidazo[1,2-a]pyridin-6-yl}quinoxaline-5-carboxamide] | 1000 to 10000 nM | 

SMILES | IC50 (HTT mRNA) | IC50 (SMN2 mRNA) | AC50 (HTT mRNA) | Viability (K562 cells)
Cc1cn2cc(NC(=O)c3ccc(N4C[C@H]5CC[C@@H](C4)N5)c4ccnnc34)cc(F)c2n1 [Compound 108] | 1000 to 10000 nM | < 100 nM | 1000 to 10000 nM | 
O=C(Nc1cn[nH]c1)c1ccc(N2CCNCC2)c2ccnnc12 [Compound 126] | > 10000 nM | > 10000 nM | > 10000 nM | 
Cc1cn2cc(NC(=O)c3ccc(N(C)[C@@H]4C[C@H]5CC[C@@H](C4)N5)c4ccnnc34)cc(F)c2n1 [Compound 156] | > 10000 nM | 100 to 1000 nM | > 10000 nM | 
